Data reported in the supplement of paper PMC11061612.

What was measured:
[1] = system: SW1116 (Colorectal Carcinoma); assay: combination Emax (second highest fraction inhibited in the dose matrix, 72 h); higher = more inhibition; extreme values may be limits of the assay
In short: (§1)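 After 24 hours at 37°C and 5% CO2 in 1536-well plates, cells in DMEM/F12 or RPMI plus 10% FBS received two-drug dose matrices for 72 hours. Viability came from CellTiter-Glo 2.0 luminescence and was scaled as inhibition, anchored at 0 by vehicle wells and at 1 by blank wells. Combination Emax is taken as the second-highest inhibition in the matrix, and Bliss excess as the observed combination effect less EA + EB − EA·EB, with EA and EB the single-agent effects.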

[2] = system: CAPAN-1 (Pancreatic Carcinoma); assay: as above
In short: as §1

SH-4 (Melanoma) = assay: as above
In short: as §1

[3] = system: LU-139 (Small Cell Lung Carcinoma); assay: as above
In short: as §1

HMV-II (Melanoma) [4] = assay: as above
In short: as §1

[5] = system: HDLM-2 (Hodgkin's Lymphoma); assay: as above
In short: as §1

[6] = system: LoVo (Colorectal Carcinoma); assay: as above
In short: as §1

Mewo (Melanoma) [7] = assay: as above
In short: as §1

[8] = system: MDA-MB-468 (Breast Carcinoma); assay: as above
In short: as §1

[9] = system: RPMI-6666 (Non-Cancerous); assay: as above
In short: as §1

[10] = system: SW1116 (Colorectal Carcinoma); assay: Bliss excess, mean over the matrix (fraction); higher = more synergy
In short: as §1

HMV-II (Melanoma) [11] = assay: as above
In short: as §1

[12] = system: HDLM-2 (Hodgkin's Lymphoma); assay: as above
In short: as §1

[13] = system: SU-DHL-6 (B-Cell Non-Hodgkin's Lymphoma); assay: as above
In short: as §1

[14] = system: LoVo (Colorectal Carcinoma); assay: as above
In short: as §1

Mewo (Melanoma) [15] = assay: as above
In short: as §1

[16] = system: MDA-MB-468 (Breast Carcinoma); assay: as above
In short: as §1

[17] = system: RPMI-6666 (Non-Cancerous); assay: as above
In short: as §1

[18] = system: K5 (Thyroid Gland Carcinoma); assay: as above
In short: as §1

[19] = system: SK-OV-3 (Ovarian Carcinoma); assay: as above
In short: as §1
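Throughout, for Bliss excess, mean over the matrix: after 72 h of two-drug dosing.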

SMILES | combination Emax [1] | combination Emax [2] | combination Emax (SH-4 (Melanoma)) | combination Emax [3] | combination Emax (HMV-II (Melanoma) [4]) | combination Emax [5] | combination Emax [6] | combination Emax (Mewo (Melanoma) [7]) | combination Emax [8] | combination Emax [9] | Bliss excess [10] | Bliss excess (HMV-II (Melanoma) [11]) | Bliss excess [12] | Bliss excess [13] | Bliss excess [14] | Bliss excess (Mewo (Melanoma) [15]) | Bliss excess [16] | Bliss excess [17] | Bliss excess [18] | Bliss excess [19]
C[C@@H]1COCCN1c1cc(C2([S@](C)(=N)=O)CC2)nc(-c2ccnc3[nH]ccc23)n1 [AZD6738] + C1CC(C1)(C(=O)[O-])C(=O)[O-].N.N.[Pt+2] [Carboplatin] (first compound max 10 µM, 7x7, partner max 10 µM) | 0.247 | 0.384 | 0.277 | 0.258 | 0.454 | 0.472 | 0.8 | 0.526 | 0.583 | 0.7 | -0.0483 | -0.0067 | 0.0001 | -0.0174 | -0.0743 | -0.0192 | -0.0511 | -0.0614 | -0.0728 | -0.0788
N#Cc1cnc(Nc2cc(NC[C@H]3CNCCO3)c(C(F)(F)F)cn2)cn1 [SRA737] + C=CCn1c(=O)c2cnc(Nc3ccc(N4CCN(C)CC4)cc3)nc2n1-c1cccc(C(C)(C)O)n1 [AZD1775] (first compound max 10 µM, partner max 1 µM) | 0.405 | 0.507 | 0.656 | 0.564 | 0.53 | 0.697 | 0.852 | 0.638 | 0.642 | 0.865 | -0.0119 | 0.0015 | -0.0363 | 0.131 | 0.0837 | -0.0149 | 0.0705 | -0.0021 | -0.0051 | -0.0357
N#Cc1cnc(Nc2cc(NC[C@H]3CNCCO3)c(C(F)(F)F)cn2)cn1 [SRA737] + O=c1[nH]cc(F)c(=O)[nH]1 [5-Fluorouracil] (first compound max 10 µM, 7x7, partner max 20 µM) | 0.193 | 0.349 | 0.383 | 0.356 | 0.303 | 0.645 | 0.652 | 0.38 | 0.344 | 0.901 | -0.033 | -0.0542 | 0.0758 | 0.0498 | 0.0238 | -0.0136 | -0.0199 | -0.003 | -0.0459 | -0.0597
C[C@@H](Nc1cc(F)cc(F)c1)c1cc(C(=O)N(C)C)cc2c(=O)cc(N3CCOCC3)oc12 [AZD8186] + C1CN(CCC1(C(=O)N[C@@H](CCO)C2=CC=C(C=C2)Cl)N)C3=NC=NC4=C3C=CN4 [AZD5363] (first compound max 10 µM, 7x7, partner max 10 µM) | 0.206 | 0.204 | 0.214 | 0.0726 | 0.229 | 0.235 | 0.644 | 0.345 | 0.571 | 0.672 | -0.0429 | -0.0515 | -0.0194 | 0.0024 | -0.0372 | -0.001 | -0.0305 | -0.086 | -0.062 | -0.064
Cc1c2c(nn1C)CSCc1cc(n(C)n1)CSc1cc(c3ccccc3c1)OCCCc1c(C(=O)O)n(C)c3c-2c(Cl)ccc13 [AZD5991] + CS(=O)(=O)CCNCc1ccc(-c2ccc3ncnc(Nc4ccc(OCc5cccc(F)c5)c(Cl)c4)c3c2)o1 [Lapatinib] (first compound max 1 µM, 7x7, partner max 10 µM) | 0.395 | 0.261 | 0.197 | 0.201 | 0.64 | 0.961 | 0.491 | 0.481 | 0.851 | 0.555 | -0.0369 | -0.0587 | 0.0262 | 0.0085 | -0.0052 | -0.013 | -0.0357 | -0.1 | -0.0063 | 0.0591
O=C(c1cc(Cc2n[nH]c(=O)c3ccccc23)ccc1F)N1CCN(C(=O)C2CC2)CC1 [Olaparib] + COc1nnc2ccc(N3CCC(c4ccc(OCCN5CCN(C)C(=O)[C@H]5C)cc4)CC3)nn12 [AZD5153] (first compound max 10 µM, 7x7, partner max 1 µM) | 0.332 | 0.418 | 0.514 | 0.896 | 0.474 | 0.356 | 0.436 | 0.417 | 0.503 | 0.633 | -0.0745 | -0.046 | -0.0334 | -0.0338 | -0.0338 | -0.074 | -0.0737 | -0.0487 | -0.0392 | -0.0296
O=C(c1cc(Cc2n[nH]c(=O)c3ccccc23)ccc1F)N1CCN(C(=O)C2CC2)CC1 [Olaparib] + Cc1c2c(nn1C)CSCc1cc(n(C)n1)CSc1cc(c3ccccc3c1)OCCCc1c(C(=O)O)n(C)c3c-2c(Cl)ccc13 [AZD5991] (first compound max 10 µM, 7x7, partner max 1 µM) | 0.0456 | 0.366 | 0.155 | 0.132 | 0.0925 | 0.937 | 0.162 | 0.161 | 0.42 | 0.794 | -0.0503 | -0.0561 | -0.0194 | 0.0065 | -0.0591 | -0.0652 | -0.0391 | 0.017 | -0.0563 | -0.06
CN(CCO)CC[C@H](CSc1ccccc1)Nc1ccc(S(=O)(=O)NC(=O)c2ccc(N3CCC([C@@H](O)c4ccccc4-c4ccc(Cl)cc4)CC3)cc2)cc1S(=O)(=O)C(F)(F)F [AZD4320] + C[C@@H](Nc1cc(F)cc(F)c1)c1cc(C(=O)N(C)C)cc2c(=O)cc(N3CCOCC3)oc12 [AZD8186] (first compound max 1 µM, 7x7, partner max 3 µM) | 0.275 | 0.552 | 0.308 | 0.943 | 0.383 | 0.847 | 0.6 | 0.332 | 0.789 | 0.996 | 0.0353 | -0.0397 | 0.0434 | 0.0068 | 0.0355 | 0.0471 | 0.0195 | 0.0298 | -0.0505 | 0.0008
O=C(c1cc(Cc2n[nH]c(=O)c3ccccc23)ccc1F)N1CCN(C(=O)C2CC2)CC1 [Olaparib] + CN(CC[C@H](CSC1=CC=CC=C1)NC2=C(C=C(C=C2)S(=O)(=O)NC(=O)C3=CC=C(C=C3)N4CCC(CC4)[C@H](C5=CC=CC=C5C6=CC=C(C=C6)Cl)O)S(=O)(=O)C(F)(F)F)CCO [AZD4320] (first compound max 10 µM, 7x7, partner max 1 µM) | 0.118 | 0.663 | 0.162 | 0.958 | 0.0872 | 0.878 | 0.187 | 0.0936 | 0.684 | 0.94 | -0.0404 | -0.0537 | -0.0141 | 0.0091 | -0.0225 | -0.0615 | -0.043 | 0.0694 | -0.0148 | -0.0672
C[C@@H]1COCCN1c1cc(C2([S@](C)(=N)=O)CC2)nc(-c2ccnc3[nH]ccc23)n1 [AZD6738] + Nc1ccn([C@@H]2O[C@H](CO)[C@@H](O)C2(F)F)c(=O)n1 [Gemcitabine] (first compound max 10 µM, 7x7, partner max 0.3 µM) | 0.553 | 0.684 | 0.623 | 0.841 | 0.724 | 0.77 | 0.846 | 0.768 | 0.767 | 0.936 | 0.0575 | -0.0112 | 0.0754 | 0.118 | -0.0243 | 0.0475 | 0.0233 | -0.034 | 0.034 | 0.0331
CN(CCO)CC[C@H](CSc1ccccc1)Nc1ccc(S(=O)(=O)NC(=O)c2ccc(N3CCC([C@@H](O)c4ccccc4-c4ccc(Cl)cc4)CC3)cc2)cc1S(=O)(=O)C(F)(F)F [AZD4320] + Nc1ccn([C@@H]2O[C@H](CO)[C@@H](O)C2(F)F)c(=O)n1 [Gemcitabine] (first compound max 1 µM, 7x7, partner max 0.3 µM) | 0.184 | 0.828 | 0.642 | 0.961 | 0.619 | 0.935 | 0.7 | 0.451 | 0.799 | 0.985 | -0.0292 | -0.0109 | 0.0204 | -0.0131 | -0.0476 | 0.0099 | -0.0034 | -0.0051 | 0.0121 | -0.0695
Cc1cc2ncnn2cc1Nc1ncc2c(n1)n(C1CCOCC1)c(=O)n2C [AZD7648] + COc1cc([C@@H]2c3cc4c(cc3[C@@H](O[C@@H]3O[C@@H]5CO[C@@H](C)O[C@H]5[C@H](O)[C@H]3O)[C@H]3COC(=O)[C@H]23)OCO4)cc(OC)c1O [Etoposide] (first compound max 10 µM, 7x7, partner max 10 µM) | 0.192 | 0.492 | 0.492 | 0.875 | 0.655 | 0.715 | 0.704 | 0.71 | 0.657 | 0.958 | -0.0028 | 0.0864 | -0.0015 | 0.0914 | 0.0689 | 0.0524 | 0.0376 | 0.0224 | 0.1 | -0.0497
C[C@@H](Oc1cc(-c2cnn(C3CCNCC3)c2)cnc1N)c1c(Cl)ccc(F)c1Cl [Crizotinib] + Cn1cnc2c(F)c(Nc3ccc(Br)cc3Cl)c(C(=O)NOCCO)cc21 [Selumetinib] (first compound max 10 µM, 7x7, partner max 10 µM) | 0.518 | 0.571 | 0.91 | 0.684 | 0.934 | 0.193 | 0.557 | 0.541 | 0.673 | 0.672 | -0.0239 | -0.0273 | -0.0399 | -0.0205 | -0.0546 | -0.0431 | -0.0996 | -0.0622 | -0.0788 | -0.0479
